From patent EP0093915A1, “Novel beta-lactam derivatives” (GRUPPO LEPETIT S.P.A., priority 1982, dated 1983) come the findings set out here.

Experiment in all cases: MIC in microtiter, antibacterial spectrum in vitro
What all share (type): cell-based

One experiment deals with K. aerogenes 1522 E. The conditions noted are these: Penassay broth (Difco), overnight incubation at 37°C. Here is the method:
(§1) MICS (minimum inhibitory concentrations) were determined in "microtiter" using Brain-heart infusion broth (Difco) or Penassay broth (Difco) for gram-positive or gram-negative bacteria, respectively. S. pyogenes and S. pneu- moniae were tested in Todd-Merwitt broth (Difco).
(§2) The inoculum was overnight cultures diluted to obtain 10^3 or […] respectively in the case of gram-positive or gram-negative strains.
(§3) The MIC was defined as the lowest concentration of antibiotic which […] visible growth after overnight incubation at 37 °C.

The next experiment deals with S. pneumoniae UC 41. The conditions noted are these: Todd-Merwitt broth (Difco), overnight incubation at 37°C. Here is the method:
as §1, §2, §3

Another experiment deals with E. coli SKF 12140. The conditions noted are these: Penassay broth (Difco), overnight incubation at 37°C. The protocol:
as §1, §2, §3

The test system of the next experiment is E cloacae P 99 1321 E. The conditions noted are these: Penassay broth (Difco), overnight incubation at 37°C. The protocol:
as §1, §2, §3

A further experiment deals with S. pyogenes c 203 ISM. The conditions noted are these: Todd-Merwitt broth (Difco), overnight incubation at 37°C. Here is the method:
as §1, §2, §3

The next experiment relates to S. aureus ATCC 6538. The conditions noted are these: Brain-heart infusion broth (Difco), overnight incubation at 37°C. Here is the method:
as §1, §2, §3

The next experiment concerns E. cloacae 45. The conditions noted are these: Penassay broth (Difco), overnight incubation at 37°C. Here is the method: as §1, §2, §3
The test system of the next experiment is P. vulgaris ATCC 881. The conditions noted are these: Penassay broth (Difco), overnight incubation at 37°C. Here is the method: as §1, §2, §3
A further experiment concerns S. aureus Smith. The conditions noted are these: Brain-heart infusion broth (Difco), overnight incubation at 37°C. The protocol: as §1, §2, §3
For experiment [1], the system named is S. pyogenes c 203 SKF 13400. The conditions noted are these: Todd-Merwitt broth (Difco), overnight incubation at 37°C. The protocol:
as §1, §2, §3

“Trans-(±)-6-ethyl-7-oxo-2-[[2-(2-pyridylamino)ethyl]-thio]-1-azabicyclo[3.2.0]hept-2-en-2-carboxylic acid S-oxide, (4-nitrophenyl)methyl ester [Example 22]”: the minimal inhibitory concentration (MIC) against K. aerogenes 1522 E is 12.5 µg/mL; against S. pneumoniae UC 41, 0.05 µg/mL; in the experiment on E. coli SKF 12140, 25 µg/mL; in the experiment on E cloacae P 99 1321 E, 25 µg/mL; against S. pyogenes c 203 ISM it was 0.1 µg/mL; against S. aureus ATCC 6538, 0.1 µg/mL. The MIC with E. cloacae 45 is 25 µg/mL; in the experiment on P. vulgaris ATCC 881, 3.12 µg/mL.

For “Trans-(±)-6-ethyl-7-oxo-2-[[2-(2-(2-pyrimidinyl)ethy]-thio]-1-azabicyclo[3.2.0]hept-2-en-2-carboxylic acid S-oxide, (4-nitrophenyl)methyl ester [Example 23]”, the MIC came out at 3.1 µg/mL with K. aerogenes 1522 E; 0.05 µg/mL against S. pneumoniae UC 41; 6.2 µg/mL against E. coli SKF 12140; 0.1 µg/mL against S. aureus Smith; 3.1 µg/mL in the experiment with E cloacae P 99 1321 E; 0.05 µg/mL in experiment [1]. For the same substance, the MIC came out at 0.1 µg/mL against S. aureus ATCC 6538, 3.1 µg/mL in the experiment on E. cloacae 45 and 3.1 µg/mL in the experiment on P. vulgaris ATCC 881.

Regarding “Trans-(±)-6-ethyl-7-oxo-2-[[2-[(2-thiazolyl)amino]-ethyl]thio]-1-azabicyclo]3.2.0]hept-2-en-2-carboxylic acid potassium salt [Example 24]”, the MIC against K. aerogenes 1522 E came to 6.2 µg/mL; in the experiment with S. pneumoniae UC 41, 0.1 µg/mL; against E. coli SKF 12140 it was 12.5 µg/mL; against S. aureus Smith it was 0.4 µg/mL; with E cloacae P 99 1321 E, 12.5 µg/mL; in experiment [1], 0.1 µg/mL. Moreover, the minimal inhibitory concentration (MIC) in the experiment on S. aureus ATCC 6538 turned out to be 0.1 µg/mL; against E. cloacae 45, 6.2 µg/mL; against P. vulgaris ATCC 881, 6.2 µg/mL.
